Among the test systems are SNB-75; A549; OVCAR-8; K562; HOP-62; SW-620; EKVX; HL-60; COLO 205; SF-268; OVCAR-3; MDA-MB-435; NCI-H460; UO-31; BT-549; RXF 393; CCRF-CEM; HT-29; HOP-92.
What all share (experiment): growth of human tumour cells (NCI), 48 h

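Five compound concentrations were applied to cells in 96-well plates for 48 hours; endpoints were derived by simple linear interpolation of the resulting dose-response curve. GI50 marks 50% less growth.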 Calls of active or inactive are those of the source. Cut-off read from the data, not from the text of the source: active = GI50 up to about 1.1 µM and inactive = higher.

`CC(=O)Nc1nc(NC(C)=O)c2nc(CO)[nH]c2n1`: the GI50 in the assay with SNB-75, with A549, with OVCAR-8, in the assay on K562, in the assay with HOP-62 and with SW-620 was > 100 µM (inactive) each time. For the same molecule, the GI50 with EKVX, in the assay with HL-60, in the assay on COLO 205, in the assay with SF-268, in the assay with OVCAR-3 and in the assay on MDA-MB-435 was > 100 µM (inactive) throughout. Also, the GI50 in the assay with NCI-H460, in the assay on UO-31, in the assay on BT-549, in the assay with RXF 393, in the assay with CCRF-CEM and in the assay with HT-29 was > 100 µM (inactive) throughout. Further, the GI50 with HOP-92 is > 100 µM (inactive).

Consider `CCOc1ccc(Nc2nc(N)nc(N)c2N=O)cc1`, for which the GI50 was 28.1 µM (inactive) with SNB-75; > 100 µM (inactive) in the assay with A549; 51.1 µM (inactive) with OVCAR-8; 53.5 µM (inactive) with K562; 50.1 µM (inactive) with HOP-62; 91.2 µM (inactive) with SW-620. For the same molecule, the GI50 in the assay with EKVX is 48.4 µM (inactive); in the assay on HL-60, > 100 µM (inactive); in the assay with COLO 205, > 100 µM (inactive); in the assay on SF-268, 89.7 µM (inactive); in the assay with OVCAR-3, 24.6 µM (inactive); in the assay with MDA-MB-435, 52.4 µM (inactive). For the same molecule, the GI50 is 32.9 µM (inactive) in the assay on NCI-H460; 29.9 µM (inactive) in the assay with UO-31; 45.6 µM (inactive) with BT-549; 43.9 µM (inactive) in the assay with RXF 393; > 100 µM (inactive) in the assay with CCRF-CEM; 30.4 µM (inactive) in the assay with HT-29. Further, the GI50 with HOP-92 is 17.9 µM (inactive).

Take `O=C1/C(=C\c2ccc(-c3ccc(Cl)cc3Cl)o2)SC2NC(COc3ccc(Cl)cc3)=NN12` (configuration not stated): the GI50 in the assay with SNB-75 is > 100 µM (inactive); with A549, 69.7 µM (inactive); in the assay with OVCAR-8, 38.3 µM (inactive); with K562 it was 48.9 µM (inactive); in the assay with HOP-62, 80.4 µM (inactive); in the assay with SW-620 it was 60.7 µM (inactive). Further, the GI50 is 32.4 µM (inactive) with EKVX; 22.5 µM (inactive) with HL-60; 41.5 µM (inactive) in the assay on COLO 205; 36 µM (inactive) in the assay with SF-268; 36 µM (inactive) in the assay with OVCAR-3; 38.7 µM (inactive) in the assay on MDA-MB-435. In addition, the GI50 with NCI-H460 was 38.5 µM (inactive); with UO-31 it was > 100 µM (inactive); in the assay with BT-549, 47 µM (inactive); in the assay with RXF 393, 27.5 µM (inactive); in the assay on CCRF-CEM it was 16 µM (inactive); in the assay on HT-29, 79.4 µM (inactive). Besides, the GI50 in the assay with HOP-92 is 26.5 µM (inactive).

For `CO/N=[N+](\[O-])NC(C)C`, the GI50 in the assay on SNB-75, in the assay with A549, in the assay with OVCAR-8, in the assay on K562, in the assay with HOP-62 and in the assay on SW-620 was > 100 µM (inactive) in each case. Moreover, the GI50 with EKVX, with HL-60, in the assay on COLO 205, in the assay with SF-268, with OVCAR-3 and in the assay on MDA-MB-435 was > 100 µM (inactive) throughout. The GI50 was > 100 µM (inactive) in the assay with NCI-H460; 5.42 µM (inactive) in the assay on UO-31; > 100 µM (inactive) with BT-549; > 100 µM (inactive) in the assay on RXF 393; > 100 µM (inactive) in the assay on CCRF-CEM; > 100 µM (inactive) with HT-29. In addition, the GI50 in the assay with HOP-92 is > 100 µM (inactive).

Take `CN1CCN(CCCCN2c3ccccc3Sc3ccc(C(=O)c4ccccc4)cc32)CC1`: the GI50 in the assay with SNB-75 is 1.26 µM (inactive); in the assay with A549, 1.95 µM (inactive); in the assay on OVCAR-8, 1.5 µM (inactive); with K562 it was 1.48 µM (inactive); with HOP-62 it was 1.6 µM (inactive); in the assay with SW-620 it was 1.73 µM (inactive). For the same molecule, the GI50 with EKVX is 2.36 µM (inactive); with HL-60 it was 1.57 µM (inactive); in the assay with COLO 205 it was 1.75 µM (inactive); with SF-268, 2.23 µM (inactive); with OVCAR-3, 1.66 µM (inactive); with MDA-MB-435 it was 1.73 µM (inactive). The GI50 is 1.54 µM (inactive) in the assay with NCI-H460; 2.65 µM (inactive) in the assay on UO-31; 1.65 µM (inactive) in the assay on BT-549; 0.923 µM (active) with RXF 393; 1.64 µM (inactive) with CCRF-CEM; 1.29 µM (inactive) in the assay with HT-29. In addition, the GI50 in the assay with HOP-92 is 1.82 µM (inactive).

Regarding `CN(/N=C/c1ccccn1)C1=NCCN1`, the GI50 in the assay with SNB-75, with A549, in the assay with OVCAR-8, with K562, in the assay on HOP-62 and with SW-620 was > 100 µM (inactive) in each case. The GI50 with EKVX, with HL-60, in the assay on COLO 205, in the assay on SF-268, with OVCAR-3 and in the assay with MDA-MB-435 was > 100 µM (inactive) in each case. Moreover, the GI50 with NCI-H460, in the assay with UO-31, in the assay with BT-549, in the assay with RXF 393, with CCRF-CEM and in the assay with HT-29 was > 100 µM (inactive) in each case. In addition, the GI50 in the assay on HOP-92 is > 100 µM (inactive).

On to `O=C(O)CCC(NC(=O)c1ccc(Oc2nc3ccccc3nc2C(=O)O)cc1)C(=O)O` (configuration not stated), for which the GI50 with SNB-75, in the assay on A549, in the assay with OVCAR-8, in the assay with K562, in the assay on HOP-62 and in the assay on SW-620 was > 100 µM (inactive) in each case. Further, the GI50 in the assay with EKVX, with HL-60, with COLO 205, in the assay on SF-268, in the assay on OVCAR-3 and in the assay with MDA-MB-435 was > 100 µM (inactive) in each case. In addition, the GI50 is > 100 µM (inactive) with NCI-H460; > 100 µM (inactive) with UO-31; 33.3 µM (inactive) in the assay on BT-549; > 100 µM (inactive) in the assay with RXF 393; > 100 µM (inactive) with CCRF-CEM; > 100 µM (inactive) in the assay on HT-29. Besides, in the assay on HOP-92, the GI50 is > 100 µM (inactive).

For the molecule `COc1ccc(-c2cc(C3CC3)nc(SCC(=O)O)c2C#N)cc1`, the GI50 with SNB-75 was > 100 µM (inactive); in the assay on A549 it was 44 µM (inactive); in the assay on OVCAR-8, > 100 µM (inactive); with K562, 64.3 µM (inactive); in the assay on HOP-62 it was > 100 µM (inactive); with SW-620 it was > 100 µM (inactive). Also, the GI50 was > 100 µM (inactive) with EKVX; 54.5 µM (inactive) with HL-60; > 100 µM (inactive) with COLO 205; > 100 µM (inactive) with SF-268; 83.2 µM (inactive) in the assay on OVCAR-3; > 100 µM (inactive) in the assay with MDA-MB-435. Further, the GI50 in the assay with NCI-H460 was 52.1 µM (inactive); in the assay with UO-31 it was 1.85 µM (inactive); with BT-549 it was > 100 µM (inactive); in the assay on RXF 393, 62.8 µM (inactive); with CCRF-CEM, 57.8 µM (inactive); with HT-29 it was > 100 µM (inactive). Further, in the assay on HOP-92, the GI50 is 82.6 µM (inactive).

The values above are taken from ChEMBL document CHEMBL1201862, “PubChem BioAssay data set” (2004).
